In US5602125A, “Thienodiazepine derivatives as cholecystokinin and gastrin antagonists” (Merck, Sharp & Dohme, Ltd., priority 1992, dated 1997):

Columns and labels:
CCK-A = target: T1, CCK-A (Rattus norvegicus, UniProt P30551); assay: displacement of 125I-CCK from rat pancreas (CCK-A); settings: 50% displacement of specific 125I-CCK, read-out: CCK receptor binding IC50, 125I-CCK Pancreas
T1 construct: ^125 I-CCK from rat pancreas (CCK-A); from tissue; host or cells: rat pancreas
T1 sequence (P30551 1-444): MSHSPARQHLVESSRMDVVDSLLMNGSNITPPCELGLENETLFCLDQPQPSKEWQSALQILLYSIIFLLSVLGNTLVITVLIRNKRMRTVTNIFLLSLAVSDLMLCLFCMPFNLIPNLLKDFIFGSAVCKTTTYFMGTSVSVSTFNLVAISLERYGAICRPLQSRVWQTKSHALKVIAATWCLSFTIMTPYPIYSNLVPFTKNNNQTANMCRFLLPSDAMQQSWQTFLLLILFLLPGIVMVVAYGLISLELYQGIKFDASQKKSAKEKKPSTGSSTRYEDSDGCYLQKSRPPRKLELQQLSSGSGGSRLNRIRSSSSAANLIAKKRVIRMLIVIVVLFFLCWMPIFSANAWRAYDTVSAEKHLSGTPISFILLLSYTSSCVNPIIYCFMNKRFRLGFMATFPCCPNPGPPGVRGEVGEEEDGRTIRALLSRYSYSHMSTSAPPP
Protocol: (§1) The CCK-A and CCK-B antagonising activity of the compounds described herein was evaluated using the assays described in published European patent application no. 0514133. The method essentially involves determining the concentration of the test compound required to displace 50% of the specific ^125 I-CCK from rat pancreas (CCK-A) or guinea pig brain (CCK-B). The data in Table 1 were obtained for the compound of Example 1.

CCK-B = target: T2, CCK-B (Cavia porcellus, UniProt H0VZC5); assay: displacement of 125I-CCK from guinea pig brain (CCK-B); assay type: binding
T2 construct: guinea pig brain (CCK-B); from tissue; host or cells: guinea pig brain
Protocol: as §1

T2 sequence (H0VZC5 entry or part of it): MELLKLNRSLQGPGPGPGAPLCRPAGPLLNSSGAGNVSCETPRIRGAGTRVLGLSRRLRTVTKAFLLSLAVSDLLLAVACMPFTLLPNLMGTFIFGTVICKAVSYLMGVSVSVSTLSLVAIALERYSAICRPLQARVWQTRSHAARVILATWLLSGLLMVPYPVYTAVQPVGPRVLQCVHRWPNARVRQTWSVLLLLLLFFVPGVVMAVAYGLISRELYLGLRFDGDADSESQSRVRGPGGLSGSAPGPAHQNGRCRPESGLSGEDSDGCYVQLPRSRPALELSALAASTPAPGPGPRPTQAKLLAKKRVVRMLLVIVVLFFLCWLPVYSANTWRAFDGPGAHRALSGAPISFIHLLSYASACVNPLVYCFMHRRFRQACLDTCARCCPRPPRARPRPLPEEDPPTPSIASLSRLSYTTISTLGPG

Cc1cccc(NC(=O)NC2N=C(C3CCCCC3)c3ccsc3N(C)C2=O)c1 (racemic) [Example 1, N-[3(R,S)-5-cyclohexyl-2,3-dihydro-1-methyl-2-oxo-1H-1,4-thienodiazepine-3-yl]-N'-(3-methylphenyl) urea]
IC50 (CCK-A): 0.0067 µM | IC50 (CCK-B): 0.046 µM
